Results reported in article PMC5218480 (PLoS ONE, 2017).

Tested on: MV-4-11 cells
Assay: Gene expression microarray analysis (Affymetrix PrimeView) and GSEA
Type: cell-based, human
Design: RFU PODN (11730768_x_at) / Fold change /veh PODN (11730768_x_at) / RFU LINC00158 (11744669_a_at) / Fold change /veh LINC00158 (11744669_a_at) / RFU DUSP10 (11751237_a_at) / Fold change /veh DUSP10 (11751237_a_at) / RFU ID3 (11757404_x_at) / Fold change /veh ID3 (11757404_x_at) / RFU PLEKHG5 (11737974_s_at) / Fold change /veh PLEKHG5 (11737974_s_at) / RFU LRRC4B (11730491_at) / Fold change /veh LRRC4B (11730491_at) / RFU GIMAP4 (11747438_a_at) / Fold change /veh GIMAP4 (11747438_a_at) / RFU KRT8 (11758183_x_at) / Fold change /veh KRT8 (11758183_x_at) / RFU CNN1 (11734310_a_at) / Fold change /veh CNN1 (11734310_a_at) / RFU VPS37D (11726825_at) / Fold change /veh VPS37D (11726825_at) / RFU C10orf10 (11716522_x_at) / Fold change /veh C10orf10 (11716522_x_at) / RFU KIR2DL2 /// KIR2DL4 /// KIR2DL5A /// KIR2DL5B /// KIR2DS1 /// KIR2DS2 /// KIR2DS3 /// KIR2DS4 /// KIR3DL3 /// KIR3DL3 /// KIR3DS1 (11738374_at) / Fold change /veh KIR2DL2 /// KIR2DL4 /// KIR2DL5A /// KIR2DL5B /// KIR2DS1 /// KIR2DS2 /// KIR2DS3 /// KIR2DS4 /// KIR3DL3 /// KIR3DL3 /// KIR3DS1 (11738374_at) / RFU C1QL1 (11718748_at) / Fold change /veh C1QL1 (11718748_at) / RFU TMPRSS4 (11747572_a_at) / Fold change /veh TMPRSS4 (11747572_a_at) / RFU HAMP (11756126_x_at) / Fold change /veh HAMP (11756126_x_at) / RFU RNFT2 (11725882_a_at) / Fold change /veh RNFT2 (11725882_a_at) / RFU NR4A2 (11747474_a_at) / Fold change /veh NR4A2 (11747474_a_at) / RFU ABCC12 (11746883_a_at) / Fold change /veh ABCC12 (11746883_a_at) / RFU TMEM136 (11760407_x_at) / Fold change /veh TMEM136 (11760407_x_at) / RFU CLDN22 /// WWC2 (11732394_at) / Fold change /veh CLDN22 /// WWC2 (11732394_at) / RFU HLA-DPB1 (11760878_x_at) / Fold change /veh HLA-DPB1 (11760878_x_at) / RFU SPINT1 (11716480_a_at) / Fold change /veh SPINT1 (11716480_a_at) / RFU GAP43 (11754022_s_at) / Fold change /veh GAP43 (11754022_s_at) / RFU A4GNT (11735810_at) / Fold change /veh A4GNT (11735810_at) / RFU PRB3 (11715151_x_at) / Fold change /veh PRB3 (11715151_x_at) / RFU TUBB4B (11761932_at) / Fold change /veh TUBB4B (11761932_at) / RFU CAPN14 (11732068_a_at) / Fold change /veh CAPN14 (11732068_a_at) / RFU TMCC2 (11721928_a_at) / Fold change /veh TMCC2 (11721928_a_at) / RFU IRGQ (11745062_a_at) / Fold change /veh IRGQ (11745062_a_at) / RFU FAM174B (11720279_a_at) / Fold change /veh FAM174B (11720279_a_at) / RFU TMPRSS4 (11748680_a_at) / Fold change /veh TMPRSS4 (11748680_a_at) / RFU FAM212B (11763350_a_at) / Fold change /veh FAM212B (11763350_a_at) / RFU PLEKHG5 (11743358_a_at) / Fold change /veh PLEKHG5 (11743358_a_at) / RFU ZSCAN30 (11745921_a_at) / Fold change /veh ZSCAN30 (11745921_a_at) / RFU CMKLR1 (11741424_a_at) / Fold change /veh CMKLR1 (11741424_a_at) / RFU LOC101060620 /// MAPK8IP1 (11723275_at) / Fold change /veh LOC101060620 /// MAPK8IP1 (11723275_at) / RFU SPTSSB (11747773_x_at) / Fold change /veh SPTSSB (11747773_x_at) / RFU PRSS12 (11739890_at) / Fold change /veh PRSS12 (11739890_at) / RFU BIN1 (11741810_x_at) / Fold change /veh BIN1 (11741810_x_at) / RFU WNT11 (11732464_a_at) / Fold change /veh WNT11 (11732464_a_at) / RFU C10orf10 (11716521_a_at) / Fold change /veh C10orf10 (11716521_a_at) / RFU C5orf56 (11738089_at) / Fold change /veh C5orf56 (11738089_at) / RFU CYB561 (11721691_x_at) / Fold change /veh CYB561 (11721691_x_at) / RFU ANKRD19P (11752326_a_at) / Fold change /veh ANKRD19P (11752326_a_at) / RFU OR2T12 /// OR2T33 /// OR2T8 (11738714_s_at) / Fold change /veh OR2T12 /// OR2T33 /// OR2T8 (11738714_s_at) / RFU VCAN (11748164_a_at) / Fold change /veh VCAN (11748164_a_at) / RFU JSRP1 (11732532_at) / Fold change /veh JSRP1 (11732532_at) / RFU KRTAP10-11 (11738290_x_at) / Fold change /veh KRTAP10-11 (11738290_x_at) / RFU MYO3A (11730013_a_at) / Fold change /veh MYO3A (11730013_a_at) / RFU EBF3 (11725865_a_at) / Fold change /veh EBF3 (11725865_a_at) / RFU CAMK2N1 (11719241_x_at) / Fold change /veh CAMK2N1 (11719241_x_at) / RFU C5orf56 (11738088_a_at) / Fold change /veh C5orf56 (11738088_a_at) / RFU OLFML3 (11715873_a_at) / Fold change /veh OLFML3 (11715873_a_at) / RFU LOC100653217 /// NTM (11731650_a_at) / Fold change /veh LOC100653217 /// NTM (11731650_a_at) / RFU MAPK11 (11762145_a_at) / Fold change /veh MAPK11 (11762145_a_at) / RFU FIZ1 (11724087_x_at) / Fold change /veh FIZ1 (11724087_x_at) / RFU OASL (11726364_x_at) / Fold change /veh OASL (11726364_x_at) / RFU SOX15 (11748057_x_at) / Fold change /veh SOX15 (11748057_x_at) / RFU CD79A (11719716_a_at) / Fold change /veh CD79A (11719716_a_at) / RFU HIST1H1D (11736915_at) / Fold change /veh HIST1H1D (11736915_at) / RFU CASKIN2 (11723855_a_at) / Fold change /veh CASKIN2 (11723855_a_at) / RFU LOC730098 (11760151_x_at) / Fold change /veh LOC730098 (11760151_x_at) / RFU OR4N2 (11742367_at) / Fold change /veh OR4N2 (11742367_at) / RFU PRRT2 (11749266_a_at) / Fold change /veh PRRT2 (11749266_a_at) / RFU SNX32 (11753110_a_at) / Fold change /veh SNX32 (11753110_a_at) / RFU CDHR5 (11726645_a_at) / Fold change /veh CDHR5 (11726645_a_at) / RFU RCAN1 (11760418_a_at) / Fold change /veh RCAN1 (11760418_a_at) / RFU FAM167A (11723789_a_at) / Fold change /veh FAM167A (11723789_a_at) / RFU FAM26E (11764081_at) / Fold change /veh FAM26E (11764081_at) / RFU ISYNA1 (11749810_s_at) / Fold change /veh ISYNA1 (11749810_s_at) / RFU ACY1 (11761880_at) / Fold change /veh ACY1 (11761880_at) / RFU 11764098_at / Fold change /veh 11764098_at / RFU SAMD14 (11745864_x_at) / Fold change /veh SAMD14 (11745864_x_at) / RFU NPB (11741838_a_at) / Fold change /veh NPB (11741838_a_at) / RFU TMPRSS6 (11731388_a_at) / Fold change /veh TMPRSS6 (11731388_a_at) / RFU KRTAP10-2 (11738614_at) / Fold change /veh KRTAP10-2 (11738614_at) / RFU ARHGAP8 /// PRR5-ARHGAP8 (11727945_x_at) / Fold change /veh ARHGAP8 /// PRR5-ARHGAP8 (11727945_x_at) / RFU KRTAP5-7 /// NADSYN1 (11734609_at) / Fold change /veh KRTAP5-7 /// NADSYN1 (11734609_at) / RFU RASL12 (11751679_a_at) / Fold change /veh RASL12 (11751679_a_at) / RFU CDKN2B (11736163_a_at) / Fold change /veh CDKN2B (11736163_a_at) / RFU PRF1 (11729649_at) / Fold change /veh PRF1 (11729649_at) / RFU, ZNF638 /// ZNF638-IT1 / Fold change vs veh, ZNF638 /// ZNF638-IT1 / RFU, PANK3 / Fold change vs veh, PANK3 / RFU, SH3YL1 / Fold change vs veh, SH3YL1 / RFU, ZEB2 / Fold change vs veh, ZEB2 / RFU, NRIP1 / Fold change vs veh, NRIP1 / RFU, PTTG1IP / Fold change vs veh, PTTG1IP / RFU, CAPN2 / Fold change vs veh, CAPN2 / RFU, MED14 / Fold change vs veh, MED14 / RFU, SNORA58 / Fold change vs veh, SNORA58 / RFU, C1orf63 / Fold change vs veh, C1orf63 / RFU, LRRFIP1 / Fold change vs veh, LRRFIP1 / RFU, NDUFAF7 / Fold change vs veh, NDUFAF7 / RFU, SLC12A2 / Fold change vs veh, SLC12A2 / RFU, IBTK / Fold change vs veh, IBTK / RFU, ESF1 / Fold change vs veh, ESF1 / Fold change vs veh, TMEM50B / RFU, TAOK1 / Fold change vs veh, TAOK1 / RFU, ACBD3 / Fold change vs veh, ACBD3 / RFU, TMA16 / Fold change vs veh, TMA16 / RFU, RWDD3 / Fold change vs veh, RWDD3 / RFU, BCAT1 / Fold change vs veh, BCAT1 / RFU, EDEM3 / Fold change vs veh, EDEM3 / RFU, TMEM33 / Fold change vs veh, TMEM33 / RFU, WDR75 / Fold change vs veh, WDR75 / RFU, AHCTF1 / Fold change vs veh, AHCTF1 / RFU, TFRC / Fold change vs veh, TFRC / RFU, ZDHHC17 / Fold change vs veh, ZDHHC17 / RFU, NOM1 / Fold change vs veh, NOM1 / RFU, ARL8B / Fold change vs veh, ARL8B / RFU, ZBTB11 / Fold change vs veh, ZBTB11 / RFU, TAMM41 / Fold change vs veh, TAMM41 / RFU, KIAA1704 /// LOC100996395 / Fold change vs veh, KIAA1704 /// LOC100996395 / RFU, ING1 / Fold change vs veh, ING1 / RFU, TRMT61B / Fold change vs veh, TRMT61B / RFU, FUBP3 / Fold change vs veh, FUBP3 / RFU, TP53 / Fold change vs veh, TP53 / RFU, TNKS2 / Fold change vs veh, TNKS2 / RFU, ZFP14 / Fold change vs veh, ZFP14 / RFU, ACTR2 / Fold change vs veh, ACTR2 / RFU, PPP3R1 / Fold change vs veh, PPP3R1 / RFU, PIK3R1 / Fold change vs veh, PIK3R1 / RFU, HNRNPA1 / Fold change vs veh, HNRNPA1 / RFU, RNF170 / Fold change vs veh, RNF170 / RFU, ZNF28 / Fold change vs veh, ZNF28 / RFU, RNGTT / Fold change vs veh, RNGTT / RFU, OGT / Fold change vs veh, OGT / RFU, BRD1 / Fold change vs veh, BRD1 / RFU, MARS / Fold change vs veh, MARS / RFU, ZNF655 / Fold change vs veh, ZNF655 / RFU, FAHD1 / Fold change vs veh, FAHD1 / RFU, BDP1 / Fold change vs veh, BDP1 / RFU, LRRCC1 / Fold change vs veh, LRRCC1 / RFU, ARID1A / Fold change vs veh, ARID1A / RFU, ZNF146 / Fold change vs veh, ZNF146 / RFU, ZNF330 / Fold change vs veh, ZNF330 / RFU, GPN3 / Fold change vs veh, GPN3 / RFU, C9orf123 / Fold change vs veh, C9orf123 / RFU, N4BP2L2 / Fold change vs veh, N4BP2L2 / RFU, ARFIP1 / Fold change vs veh, ARFIP1 / RFU, FAM179B / Fold change vs veh, FAM179B / RFU, BCL10 / Fold change vs veh, BCL10 / RFU, UHRF1BP1L / Fold change vs veh, UHRF1BP1L / RFU, BET1 / Fold change vs veh, BET1 / RFU, CNOT2 / Fold change vs veh, CNOT2 / RFU, ZNF268 / Fold change vs veh, ZNF268 / Fold change vs veh, ZNF507 / RFU, DGCR2 / Fold change vs veh, DGCR2 / RFU, WDSUB1 / Fold change vs veh, WDSUB1 / Fold change vs veh, HSP90B1 /// MIR3652 / RFU, ADSS / Fold change vs veh, ADSS / RFU, GK / Fold change vs veh, GK / RFU, ZNF148 / Fold change vs veh, ZNF148 / RFU, TAF9 / Fold change vs veh, TAF9 / RFU, SLC1A5 / Fold change vs veh, SLC1A5 / RFU, SLMO2 / Fold change vs veh, SLMO2 / RFU, ABCC4 / Fold change vs veh, ABCC4 / RFU, LOC101060439 /// RAP1B / Fold change vs veh, LOC101060439 /// RAP1B / RFU, RFX7 / Fold change vs veh, RFX7 / RFU, GTPBP10 / Fold change vs veh, GTPBP10 / RFU, CNEP1R1 / Fold change vs veh, CNEP1R1 / RFU, BIVM-ERCC5 /// ERCC5 / Fold change vs veh, BIVM-ERCC5 /// ERCC5 / RFU, ILF3 / Fold change vs veh, ILF3 / RFU 11762660_at / Fold change /veh 11762660_at / RFU VCAN (11757783_s_at) / Fold change /veh VCAN (11757783_s_at) / RFU DDX43 (11728927_at) / Fold change /veh DDX43 (11728927_at) / RFU KRT8 (11758188_x_at) / Fold change /veh KRT8 (11758188_x_at) / RFU NKD1 (11759106_at) / Fold change /veh NKD1 (11759106_at) / RFU SRD5A1 (11742802_a_at) / Fold change /veh SRD5A1 (11742802_a_at) / RFU TPSAB1 /// TPSB2 (11721975_s_at) / Fold change /veh TPSAB1 /// TPSB2 (11721975_s_at) / RFU GSTM3 (11746129_a_at) / Fold change /veh GSTM3 (11746129_a_at) / RFU IL23R (11737362_x_at) / Fold change /veh IL23R (11737362_x_at) / RFU TMEM51 (11727254_a_at) / Fold change /veh TMEM51 (11727254_a_at) / RFU PIWIL2 (11732686_x_at) / Fold change /veh PIWIL2 (11732686_x_at) / RFU ORM1 (11744905_x_at) / Fold change /veh ORM1 (11744905_x_at) / RFU CCDC152 (11743942_at) / Fold change /veh CCDC152 (11743942_at) / RFU ECM1 (11717891_a_at) / Fold change /veh ECM1 (11717891_a_at) / RFU IL23R (11748794_a_at) / Fold change /veh IL23R (11748794_a_at) / RFU TNFAIP8L3 (11732012_x_at) / Fold change /veh TNFAIP8L3 (11732012_x_at) / RFU MBOAT4 (11741988_at) / Fold change /veh MBOAT4 (11741988_at) / RFU 11764193_at / Fold change /veh 11764193_at / RFU TMEM53 (11763286_at) / Fold change /veh TMEM53 (11763286_at) / RFU MAGEB2 (11727129_at) / Fold change /veh MAGEB2 (11727129_at) / RFU TMEM200A (11744735_a_at) / Fold change /veh TMEM200A (11744735_a_at) / RFU CCDC152 (11751479_a_at) / Fold change /veh CCDC152 (11751479_a_at) / RFU FAM211A (11726209_a_at) / Fold change /veh FAM211A (11726209_a_at) / RFU RGS16 (11746705_a_at) / Fold change /veh RGS16 (11746705_a_at) / RFU VCAN (11755009_s_at) / Fold change /veh VCAN (11755009_s_at) / RFU RHOB (11743442_s_at) / Fold change /veh RHOB (11743442_s_at) / RFU RGS16 (11720943_a_at) / Fold change /veh RGS16 (11720943_a_at) / RFU RGS16 (11720944_at) / Fold change /veh RGS16 (11720944_at) / RFU, VPS4B / Fold change vs veh, VPS4B / RFU, CREB1 / Fold change vs veh, CREB1 / RFU, DNAJC13 / Fold change vs veh, DNAJC13 / RFU, GNAQ / Fold change vs veh, GNAQ / RFU, CDK5R1 / Fold change vs veh, CDK5R1 / RFU, ZRANB3 / Fold change vs veh, ZRANB3 / RFU, CUL4A / Fold change vs veh, CUL4A / RFU, CCNY / Fold change vs veh, CCNY / RFU, UFL1 / Fold change vs veh, UFL1 / RFU, COG3 / Fold change vs veh, COG3 / RFU, DIAPH2 / Fold change vs veh, DIAPH2 / RFU, SKA2 / Fold change vs veh, SKA2 / RFU, AFF3 / Fold change vs veh, AFF3 / RFU, LMF1 / Fold change vs veh, LMF1 / RFU, IPO11 / Fold change vs veh, IPO11 / RFU, DFFB / Fold change vs veh, DFFB / RFU, FOXP1 / Fold change vs veh, FOXP1 / RFU, CARD8 / Fold change vs veh, CARD8 / RFU, STRN3 / Fold change vs veh, STRN3 / RFU, ADK / Fold change vs veh, ADK / RFU, RASSF2 / Fold change vs veh, RASSF2 / RFU, WIPF1 / Fold change vs veh, WIPF1 / RFU, LARP1B / Fold change vs veh, LARP1B / RFU, RASA1 / Fold change vs veh, RASA1 / RFU, RB1 / Fold change vs veh, RB1 / RFU, PPFIA1 / Fold change vs veh, PPFIA1 / RFU, MAT2A / Fold change vs veh, MAT2A / RFU, CCT5 / Fold change vs veh, CCT5 / RFU, WDR92 / Fold change vs veh, WDR92 / RFU, CUX1 / Fold change vs veh, CUX1 / RFU, TTC7A / Fold change vs veh, TTC7A / RFU, TMEM135 / Fold change vs veh, TMEM135 / RFU, DEPTOR / Fold change vs veh, DEPTOR / RFU, CPM / Fold change vs veh, CPM / RFU, DNAJB6 / Fold change vs veh, DNAJB6 / RFU, CACNA2D3 / Fold change vs veh, CACNA2D3 / RFU, DTX4 / Fold change vs veh, DTX4 / RFU, TFCP2 / Fold change vs veh, TFCP2 / RFU, GMCL1 /// GMCL1P1 / Fold change vs veh, GMCL1 /// GMCL1P1 / RFU, AEBP2 / Fold change vs veh, AEBP2 / RFU, SNHG1 /// SNORD22 /// SNORD25 /// SNORD26 /// SNORD27 /// SNORD28 /// SNORD29 /// SNORD31 / Fold change vs veh, SNHG1 /// SNORD22 /// SNORD25 /// SNORD26 /// SNORD27 /// SNORD28 /// SNORD29 /// SNORD31 / Fold change (Aza/veh), C12orf56 (ProbeSet 11735607_a_at) / Fold change (ACY-1035/veh), C12orf56 (ProbeSet 11735607_a_at) / Fold change (Aza/veh), FGFR1OP (ProbeSet 11751329_s_at) / Fold change (ACY-1035/veh), FGFR1OP (ProbeSet 11751329_s_at) / Fold change (Aza/veh), VPS36 (ProbeSet 11739960_a_at) / Fold change (ACY-1035/veh), VPS36 (ProbeSet 11739960_a_at) / RFU SYPL1 (11715823_x_at) / Fold change /veh SYPL1 (11715823_x_at) / RFU IGFBP7 (11715501_s_at) / Fold change /veh IGFBP7 (11715501_s_at) / RFU REEP3 (11722064_at) / Fold change /veh REEP3 (11722064_at) / RFU IGLL1 (11728026_x_at) / Fold change /veh IGLL1 (11728026_x_at): dose or concentration left out as unconfirmed
Details: ProbeSet 11763166_a_at; LIST B

Compound: Nc1ccc(-c2cccs2)cc1NC(=O)c1ccc2c(c1)cc(C1CC1)n2CCN1CCOCC1 [ACY-1035]
- Fold change vs veh, MARS: 1.14
